Data from article PMC6437697 (Journal of Medicinal Chemistry, 2019).

How the values were obtained:
Assay in all cases: KINOMEscan
Format in all cases: binding
Settings in all cases: read-out: % control activity remaining
[1] = target: T1, CSNK2A1 (Homo sapiens, UniProt P68400)
T1 construct: purchased Eurofins DiscoverX KINOMEscan

[2] = target: T2, YSK4 (Homo sapiens, UniProt Q56UN5)
T2 construct: purchased Eurofins DiscoverX KINOMEscan
T2 sequence (Q56UN5 1-1328): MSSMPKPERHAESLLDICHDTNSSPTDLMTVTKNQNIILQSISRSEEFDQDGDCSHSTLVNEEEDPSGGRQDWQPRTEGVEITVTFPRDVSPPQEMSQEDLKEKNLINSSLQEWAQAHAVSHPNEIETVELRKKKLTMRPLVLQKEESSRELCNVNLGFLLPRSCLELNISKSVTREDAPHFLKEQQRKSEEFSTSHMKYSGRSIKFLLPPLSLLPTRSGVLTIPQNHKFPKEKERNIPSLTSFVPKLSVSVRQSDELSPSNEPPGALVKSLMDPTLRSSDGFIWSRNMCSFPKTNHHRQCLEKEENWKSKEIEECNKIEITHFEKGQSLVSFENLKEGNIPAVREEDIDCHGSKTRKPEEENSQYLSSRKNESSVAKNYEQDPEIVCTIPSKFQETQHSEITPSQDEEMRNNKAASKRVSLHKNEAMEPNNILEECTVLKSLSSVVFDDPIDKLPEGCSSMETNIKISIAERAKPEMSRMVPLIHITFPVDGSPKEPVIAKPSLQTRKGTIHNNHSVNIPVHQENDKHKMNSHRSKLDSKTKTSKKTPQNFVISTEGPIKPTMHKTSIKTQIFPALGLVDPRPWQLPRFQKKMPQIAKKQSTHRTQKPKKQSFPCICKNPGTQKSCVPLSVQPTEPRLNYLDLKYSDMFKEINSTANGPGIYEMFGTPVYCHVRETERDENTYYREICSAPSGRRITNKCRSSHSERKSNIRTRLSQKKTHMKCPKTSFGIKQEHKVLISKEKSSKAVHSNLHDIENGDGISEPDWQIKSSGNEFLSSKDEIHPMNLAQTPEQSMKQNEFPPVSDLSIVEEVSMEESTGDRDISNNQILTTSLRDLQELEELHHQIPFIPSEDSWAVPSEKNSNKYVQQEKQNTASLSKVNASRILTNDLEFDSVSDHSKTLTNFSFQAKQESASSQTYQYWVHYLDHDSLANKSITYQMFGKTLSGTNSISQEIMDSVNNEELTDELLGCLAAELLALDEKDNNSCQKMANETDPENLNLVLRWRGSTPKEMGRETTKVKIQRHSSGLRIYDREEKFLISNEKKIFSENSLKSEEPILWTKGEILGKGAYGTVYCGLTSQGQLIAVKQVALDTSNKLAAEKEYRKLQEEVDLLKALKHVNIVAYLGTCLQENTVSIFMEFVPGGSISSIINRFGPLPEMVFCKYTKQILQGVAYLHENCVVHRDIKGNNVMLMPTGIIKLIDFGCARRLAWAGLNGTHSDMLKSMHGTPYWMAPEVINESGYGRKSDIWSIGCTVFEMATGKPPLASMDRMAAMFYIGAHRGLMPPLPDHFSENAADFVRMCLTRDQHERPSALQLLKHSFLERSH

[3] = target: T3, ACVR2B (Homo sapiens, UniProt Q13705)
T3 construct: purchased Eurofins DiscoverX KINOMEscan

[4] = target: T4, NIK (Homo sapiens, UniProt Q99558)
T4 construct: purchased Eurofins DiscoverX KINOMEscan

[5] = target: T5, TRPM6 (Homo sapiens, UniProt Q9BX84)
T5 construct: purchased Eurofins DiscoverX KINOMEscan

[6] = target: T6, RET(M918T) (Homo sapiens, UniProt P07949, M918T)
T6 construct: purchased Eurofins DiscoverX KINOMEscan

[7] = target: T7, TNK1 (Homo sapiens, UniProt Q13470)
T7 construct: purchased Eurofins DiscoverX KINOMEscan
T7 sequence (Q13470 1-666): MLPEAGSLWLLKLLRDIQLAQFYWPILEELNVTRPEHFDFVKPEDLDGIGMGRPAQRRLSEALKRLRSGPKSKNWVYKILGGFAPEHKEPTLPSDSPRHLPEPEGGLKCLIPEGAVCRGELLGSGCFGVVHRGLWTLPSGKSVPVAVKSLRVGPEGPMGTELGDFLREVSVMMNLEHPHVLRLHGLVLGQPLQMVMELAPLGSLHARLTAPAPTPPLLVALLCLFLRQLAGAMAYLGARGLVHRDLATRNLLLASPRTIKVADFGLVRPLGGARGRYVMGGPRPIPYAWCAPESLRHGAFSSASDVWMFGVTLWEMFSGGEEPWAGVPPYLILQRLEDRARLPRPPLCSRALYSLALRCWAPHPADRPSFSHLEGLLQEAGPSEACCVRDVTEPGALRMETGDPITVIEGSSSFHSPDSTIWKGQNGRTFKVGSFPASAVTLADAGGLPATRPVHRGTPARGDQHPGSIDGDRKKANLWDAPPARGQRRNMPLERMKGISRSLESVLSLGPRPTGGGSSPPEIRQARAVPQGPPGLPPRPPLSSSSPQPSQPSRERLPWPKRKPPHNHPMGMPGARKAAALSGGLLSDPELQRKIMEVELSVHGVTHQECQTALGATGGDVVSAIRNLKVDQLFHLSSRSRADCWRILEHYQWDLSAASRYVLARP

T4 sequence (Q99558 whole entry): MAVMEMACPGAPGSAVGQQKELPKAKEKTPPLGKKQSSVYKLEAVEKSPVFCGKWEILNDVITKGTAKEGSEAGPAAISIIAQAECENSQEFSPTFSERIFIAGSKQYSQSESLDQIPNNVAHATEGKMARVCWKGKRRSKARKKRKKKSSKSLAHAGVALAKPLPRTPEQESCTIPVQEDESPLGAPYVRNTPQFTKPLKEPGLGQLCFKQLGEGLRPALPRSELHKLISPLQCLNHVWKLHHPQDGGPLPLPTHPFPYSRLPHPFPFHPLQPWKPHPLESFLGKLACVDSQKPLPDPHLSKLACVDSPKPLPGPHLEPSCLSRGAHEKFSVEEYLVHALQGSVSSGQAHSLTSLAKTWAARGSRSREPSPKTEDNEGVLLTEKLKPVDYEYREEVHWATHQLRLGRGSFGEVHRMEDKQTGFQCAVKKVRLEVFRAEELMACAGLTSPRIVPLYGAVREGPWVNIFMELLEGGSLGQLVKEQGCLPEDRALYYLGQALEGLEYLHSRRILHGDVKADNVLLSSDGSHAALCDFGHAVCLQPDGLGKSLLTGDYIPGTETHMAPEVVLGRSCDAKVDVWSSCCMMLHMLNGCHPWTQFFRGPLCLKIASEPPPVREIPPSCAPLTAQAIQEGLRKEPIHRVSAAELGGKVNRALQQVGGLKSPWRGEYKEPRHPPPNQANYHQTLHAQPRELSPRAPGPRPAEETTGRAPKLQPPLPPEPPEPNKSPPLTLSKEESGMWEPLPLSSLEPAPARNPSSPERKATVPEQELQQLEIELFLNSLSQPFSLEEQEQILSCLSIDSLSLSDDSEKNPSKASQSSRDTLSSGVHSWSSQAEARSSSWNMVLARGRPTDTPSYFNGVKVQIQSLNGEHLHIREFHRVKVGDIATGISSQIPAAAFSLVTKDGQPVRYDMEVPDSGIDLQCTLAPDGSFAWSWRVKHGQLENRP
T3 sequence (Q13705 19-512): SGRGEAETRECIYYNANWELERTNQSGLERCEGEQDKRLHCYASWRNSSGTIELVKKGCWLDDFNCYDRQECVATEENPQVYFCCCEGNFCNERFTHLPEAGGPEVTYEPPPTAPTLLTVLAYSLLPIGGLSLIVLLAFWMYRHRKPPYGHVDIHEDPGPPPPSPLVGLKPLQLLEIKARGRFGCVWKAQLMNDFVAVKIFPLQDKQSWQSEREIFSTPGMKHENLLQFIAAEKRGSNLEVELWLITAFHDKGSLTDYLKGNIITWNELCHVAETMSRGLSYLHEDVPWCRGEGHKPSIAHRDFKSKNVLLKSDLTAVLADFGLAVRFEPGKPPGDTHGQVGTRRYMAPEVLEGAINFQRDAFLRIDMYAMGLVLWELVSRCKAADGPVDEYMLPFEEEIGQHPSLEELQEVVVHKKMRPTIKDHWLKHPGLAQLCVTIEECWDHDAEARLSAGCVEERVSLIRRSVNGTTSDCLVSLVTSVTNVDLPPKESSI
T6 sequence (P07949 29-1114 M918T): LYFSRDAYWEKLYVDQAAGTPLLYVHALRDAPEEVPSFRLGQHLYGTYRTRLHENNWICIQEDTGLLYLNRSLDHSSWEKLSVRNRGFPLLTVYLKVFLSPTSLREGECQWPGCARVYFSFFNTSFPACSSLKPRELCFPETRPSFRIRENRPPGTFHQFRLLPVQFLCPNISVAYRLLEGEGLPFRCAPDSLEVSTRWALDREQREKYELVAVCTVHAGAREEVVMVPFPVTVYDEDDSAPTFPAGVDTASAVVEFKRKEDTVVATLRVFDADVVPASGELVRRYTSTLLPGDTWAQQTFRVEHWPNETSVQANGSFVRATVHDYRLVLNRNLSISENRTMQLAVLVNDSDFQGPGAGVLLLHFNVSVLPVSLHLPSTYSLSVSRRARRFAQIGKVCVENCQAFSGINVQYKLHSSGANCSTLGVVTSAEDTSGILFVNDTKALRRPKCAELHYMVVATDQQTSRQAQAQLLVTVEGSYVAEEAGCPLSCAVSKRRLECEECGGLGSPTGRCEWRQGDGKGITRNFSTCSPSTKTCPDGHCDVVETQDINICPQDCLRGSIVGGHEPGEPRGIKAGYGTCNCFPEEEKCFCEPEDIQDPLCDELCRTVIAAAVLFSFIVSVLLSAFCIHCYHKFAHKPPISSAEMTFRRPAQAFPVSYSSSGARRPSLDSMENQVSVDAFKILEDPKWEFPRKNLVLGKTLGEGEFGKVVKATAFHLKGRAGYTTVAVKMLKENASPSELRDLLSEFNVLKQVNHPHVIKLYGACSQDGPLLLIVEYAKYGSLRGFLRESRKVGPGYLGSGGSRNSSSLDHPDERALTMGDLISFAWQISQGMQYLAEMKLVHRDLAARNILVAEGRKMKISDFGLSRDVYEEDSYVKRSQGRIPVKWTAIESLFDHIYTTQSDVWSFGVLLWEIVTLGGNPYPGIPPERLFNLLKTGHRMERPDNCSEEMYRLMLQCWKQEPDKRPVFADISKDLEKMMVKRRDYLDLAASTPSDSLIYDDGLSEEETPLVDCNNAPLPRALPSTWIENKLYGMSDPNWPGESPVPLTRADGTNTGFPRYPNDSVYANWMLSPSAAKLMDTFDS
T1 sequence (P68400 whole entry): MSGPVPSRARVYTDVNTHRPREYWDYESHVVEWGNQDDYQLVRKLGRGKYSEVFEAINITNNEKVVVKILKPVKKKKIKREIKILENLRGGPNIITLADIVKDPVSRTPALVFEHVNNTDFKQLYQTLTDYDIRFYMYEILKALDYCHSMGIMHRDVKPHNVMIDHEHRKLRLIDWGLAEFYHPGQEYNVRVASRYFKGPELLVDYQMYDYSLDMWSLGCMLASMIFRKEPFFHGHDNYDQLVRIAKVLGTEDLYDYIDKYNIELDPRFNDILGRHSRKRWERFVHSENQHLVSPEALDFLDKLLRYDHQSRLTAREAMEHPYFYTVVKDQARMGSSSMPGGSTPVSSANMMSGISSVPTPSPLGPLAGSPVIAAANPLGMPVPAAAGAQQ
T5 sequence (Q9BX84 whole entry): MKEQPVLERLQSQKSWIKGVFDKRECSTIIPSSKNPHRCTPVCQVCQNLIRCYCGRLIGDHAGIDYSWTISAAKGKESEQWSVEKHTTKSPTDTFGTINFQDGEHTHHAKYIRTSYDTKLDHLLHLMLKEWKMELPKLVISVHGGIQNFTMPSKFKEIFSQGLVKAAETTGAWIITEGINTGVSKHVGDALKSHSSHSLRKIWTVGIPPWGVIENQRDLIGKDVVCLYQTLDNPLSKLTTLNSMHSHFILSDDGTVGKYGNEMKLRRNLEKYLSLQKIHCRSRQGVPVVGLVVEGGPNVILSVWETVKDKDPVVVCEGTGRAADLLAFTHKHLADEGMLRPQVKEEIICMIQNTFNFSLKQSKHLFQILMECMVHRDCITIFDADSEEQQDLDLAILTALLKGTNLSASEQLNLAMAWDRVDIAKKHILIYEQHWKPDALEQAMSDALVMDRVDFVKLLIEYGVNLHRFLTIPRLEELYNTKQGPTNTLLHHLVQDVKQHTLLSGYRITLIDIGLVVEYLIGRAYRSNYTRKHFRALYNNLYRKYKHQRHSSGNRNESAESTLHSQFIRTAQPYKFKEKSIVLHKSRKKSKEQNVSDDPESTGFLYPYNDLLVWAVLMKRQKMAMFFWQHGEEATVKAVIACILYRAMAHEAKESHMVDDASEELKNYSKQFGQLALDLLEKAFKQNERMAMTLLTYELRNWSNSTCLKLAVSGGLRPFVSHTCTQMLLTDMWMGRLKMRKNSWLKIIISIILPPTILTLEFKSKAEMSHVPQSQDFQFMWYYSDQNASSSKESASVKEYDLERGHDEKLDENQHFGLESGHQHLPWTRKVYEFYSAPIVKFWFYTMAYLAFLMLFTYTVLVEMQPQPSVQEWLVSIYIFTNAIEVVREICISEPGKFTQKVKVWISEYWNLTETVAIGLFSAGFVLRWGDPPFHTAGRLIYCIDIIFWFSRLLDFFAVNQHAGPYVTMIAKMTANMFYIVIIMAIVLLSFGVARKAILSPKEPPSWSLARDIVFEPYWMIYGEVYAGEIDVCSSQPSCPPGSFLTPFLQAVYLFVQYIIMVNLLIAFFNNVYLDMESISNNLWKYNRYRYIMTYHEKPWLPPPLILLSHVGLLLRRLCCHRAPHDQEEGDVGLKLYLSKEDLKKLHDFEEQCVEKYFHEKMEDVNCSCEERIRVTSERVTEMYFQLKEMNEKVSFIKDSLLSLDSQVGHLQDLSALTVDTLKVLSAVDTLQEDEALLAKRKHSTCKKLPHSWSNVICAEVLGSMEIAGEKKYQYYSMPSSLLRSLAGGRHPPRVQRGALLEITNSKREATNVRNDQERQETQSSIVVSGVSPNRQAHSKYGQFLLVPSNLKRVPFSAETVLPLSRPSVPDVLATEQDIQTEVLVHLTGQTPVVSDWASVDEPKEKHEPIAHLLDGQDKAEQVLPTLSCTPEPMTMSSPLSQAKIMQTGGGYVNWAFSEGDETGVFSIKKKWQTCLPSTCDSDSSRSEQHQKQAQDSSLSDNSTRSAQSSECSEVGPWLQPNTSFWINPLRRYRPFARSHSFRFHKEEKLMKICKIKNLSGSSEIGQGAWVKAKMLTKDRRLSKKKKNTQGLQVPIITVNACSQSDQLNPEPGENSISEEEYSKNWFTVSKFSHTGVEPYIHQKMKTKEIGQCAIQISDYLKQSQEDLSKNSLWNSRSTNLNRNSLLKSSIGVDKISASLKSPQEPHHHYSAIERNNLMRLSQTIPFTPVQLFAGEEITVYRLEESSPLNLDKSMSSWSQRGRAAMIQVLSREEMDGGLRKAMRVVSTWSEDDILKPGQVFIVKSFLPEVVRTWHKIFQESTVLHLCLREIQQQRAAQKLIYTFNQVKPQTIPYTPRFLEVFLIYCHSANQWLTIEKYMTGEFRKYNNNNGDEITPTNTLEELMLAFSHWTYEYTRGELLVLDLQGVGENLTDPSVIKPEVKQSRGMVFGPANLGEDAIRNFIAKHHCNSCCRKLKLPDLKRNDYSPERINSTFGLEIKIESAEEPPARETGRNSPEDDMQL

Compound: Clc1cc(NCC2CC2)c2ncc(-c3ccc4[nH]ncc4c3)n2n1 [compound 2, 6-Chloro-N-(cyclopropylmethyl)-3-(1H-indazol-5-yl)imidazo[1,2-b]pyridazin-8-amine]
- remaining binding at 1 µM [1]: 85%
- remaining binding at 1 µM [2]: 45%
- remaining binding at 1 µM [3]: 100%
- remaining binding at 1 µM [4]: 90%
- remaining binding at 1 µM [5]: 100%
- remaining binding at 1 µM [6]: 100%
- remaining binding at 1 µM [7]: 69%

Compound: O=C(CN1CCOCC1)N[C@H]1CC[C@H](Nc2cc(Cl)nn3c(-c4ccc5[nH]ncc5c4)cnc23)CC1 [compound 26]
- remaining binding at 1 µM [1]: 75%
- remaining binding at 1 µM [2]: 23%
- remaining binding at 1 µM [3]: 99%
- remaining binding at 1 µM [4]: 78%
- remaining binding at 1 µM [5]: 92%
- remaining binding at 1 µM [6]: 92%
- remaining binding at 1 µM [7]: 100%

Compound: CN1CCC(CNc2cc(Cl)nn3c(-c4cc5nc(Nc6ccccc6)[nH]c5cc4F)cnc23)CC1 [compound 31, 6-Chloro-3-(6-fluoro-2-(phenylamino)-1H-benzo[d]imidazol-5-yl)-N-((1-methylpiperidin-4-yl)methyl)imidazo[1,2-b]pyridazin-8-amine]
- remaining binding at 1 µM [1]: 99%
- remaining binding at 1 µM [2]: 77%
- remaining binding at 1 µM [3]: 100%
- remaining binding at 1 µM [4]: 92%
- remaining binding at 1 µM [5]: 85%
- remaining binding at 1 µM [6]: 80%
- remaining binding at 1 µM [7]: 100%
